Reference: patent US12077503B2, “Substituted cyclic amides and their use as herbicides” (FMC CORPORATION, priority 2015, dated 2024)

Assays:
Type in all cases: in vivo
[1] = tested on: barnyardgrass (Echinochloa crus-galli); assay: Test G Pre-Emergence Protocol; conditions: Echinochloa crus-galli, pre-emergence, 312 h, evaluated after 13 days; for pest or weed control at 15.625 g/ha: 15.625 g ai/ha; for pest or weed control at 15.625 g/ha / pest or weed control at 250 g/ha: read-out: Barnyardgrass damage rating (100=total damage to plant; 0=no damage to plant); for pest or weed control at 62.5 g/ha: 62.5 g ai/ha, 100=total damage to plant, 0=no damage to plant, read-out: Barnyardgrass damage rating; for pest or weed control at 250 g/ha: 250 g ai/ha
Method in brief: (§1)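 Test compound in 0.5% Tween 20 acetone/water (50:50) was applied at three rates (15.625, 62.5, 250 g/ha) to soil sown one day earlier. After 13 days plants were scored for injury, where 0 means unaffected and 100 means completely damaged.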

[2] = tested on: corn (Zea mays); assay: Test G Pre-Emergence Protocol; conditions: Zea mays, pre-emergence, 312 h, evaluated after 13 days; for plant injury at 15.625 g/ha: 15.625 g ai/ha; for plant injury at 15.625 g/ha / plant injury at 250 g/ha: read-out: Corn damage rating (100=total damage to plant; 0=no damage to plant); for plant injury at 62.5 g/ha: 62.5 g ai/ha, 100=total damage to plant, 0=no damage to plant, read-out: Corn damage rating; for plant injury at 250 g/ha: 250 g ai/ha
Method in brief: as §1

[3] = tested on: giant foxtail (Setaria faberi); assay: Test G Pre-Emergence Protocol; conditions: Setaria faberi, pre-emergence, 312 h, evaluated after 13 days; for pest or weed control at 15.625 g/ha: 15.625 g ai/ha; for pest or weed control at 15.625 g/ha / pest or weed control at 250 g/ha: read-out: Foxtail, Giant damage rating (100=total damage to plant; 0=no damage to plant); for pest or weed control at 62.5 g/ha: 62.5 g ai/ha, 100=total damage to plant, 0=no damage to plant, read-out: Foxtail, Giant damage rating; for pest or weed control at 250 g/ha: 250 g ai/ha
Method in brief: as §1

[4] = tested on: ivy-leaved morning glory (Ipomoea hederacea); assay: Test G Pre-Emergence Protocol; conditions: Ipomoea, pre-emergence, 312 h, evaluated after 13 days; for pest or weed control at 15.625 g/ha: 15.625 g ai/ha; for pest or weed control at 15.625 g/ha / pest or weed control at 250 g/ha: read-out: Morningglory, Ivy-leaved damage rating (100=total damage to plant; 0=no damage to plant); for pest or weed control at 62.5 g/ha: 62.5 g ai/ha, 100=total damage to plant, 0=no damage to plant, read-out: Morningglory, Ivy-leaved damage rating; for pest or weed control at 250 g/ha: 250 g ai/ha
Method in brief: as §1

[5] = tested on: redroot pigweed (Amaranthus retroflexus); assay: Test G Pre-Emergence Protocol; conditions: Amaranthus retroflexus, pre-emergence, 312 h, evaluated after 13 days; for pest or weed control at 15.625 g/ha: 15.625 g ai/ha; for pest or weed control at 15.625 g/ha / pest or weed control at 250 g/ha: read-out: Pigweed, Redroot damage rating (100=total damage to plant; 0=no damage to plant); for pest or weed control at 62.5 g/ha: 62.5 g ai/ha, 100=total damage to plant, 0=no damage to plant, read-out: Pigweed, Redroot damage rating; for pest or weed control at 250 g/ha: 250 g ai/ha
Method in brief: as §1

[6] = tested on: velvetleaf (Abutilon theophrasti); assay: Test G Pre-Emergence Protocol; conditions: Abutilon theophrasti, pre-emergence, 312 h, evaluated after 13 days; for pest or weed control at 15.625 g/ha: 15.625 g ai/ha; for pest or weed control at 15.625 g/ha / pest or weed control at 250 g/ha: read-out: Velvetleaf damage rating (100=total damage to plant; 0=no damage to plant); for pest or weed control at 62.5 g/ha: 62.5 g ai/ha, 100=total damage to plant, 0=no damage to plant, read-out: Velvetleaf damage rating; for pest or weed control at 250 g/ha: 250 g ai/ha
Method in brief: as §1

[7] = tested on: barnyardgrass (Echinochloa crus-galli); assay: Test G Post-Emergence Protocol; conditions: Echinochloa crus-galli, post-emergence, 312 h, read-out: Barnyardgrass damage rating; for pest or weed control at 15.625 g/ha: 15.625 g ai/ha, evaluated after 13 days (100=total damage to plant; 0=no damage to plant); for pest or weed control at 62.5 g/ha: 62.5 g ai/ha; for pest or weed control at 62.5 g/ha / pest or weed control at 250 g/ha: evaluated after 13 days, 100=total damage to plant, 0=no damage to plant; for pest or weed control at 250 g/ha: 250 g ai/ha
Method in brief: (§2)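 Sow in soil; grow 8 d (24/16 °C, 14 h light, 65% humidity); spray 15.625/62.5/250 g/ha in acetone:water 50:50 + 0.5% Tween 20; grow on, water twice daily; score damage 0–100 at 13 d.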

[8] = tested on: corn (Zea mays); assay: Test G Post-Emergence Protocol; conditions: Zea mays, post-emergence, 312 h, read-out: Corn damage rating; for plant injury at 15.625 g/ha: 15.625 g ai/ha, evaluated after 13 days (100=total damage to plant; 0=no damage to plant); for plant injury at 62.5 g/ha: 62.5 g ai/ha; for plant injury at 62.5 g/ha / plant injury at 250 g/ha: evaluated after 13 days, 100=total damage to plant, 0=no damage to plant; for plant injury at 250 g/ha: 250 g ai/ha
Method in brief: as §2

[9] = tested on: giant foxtail (Setaria faberi); assay: Test G Post-Emergence Protocol; conditions: Setaria faberi, post-emergence, 312 h, read-out: Foxtail, Giant damage rating; for pest or weed control at 15.625 g/ha: 15.625 g ai/ha, evaluated after 13 days (100=total damage to plant; 0=no damage to plant); for pest or weed control at 62.5 g/ha: 62.5 g ai/ha; for pest or weed control at 62.5 g/ha / pest or weed control at 250 g/ha: evaluated after 13 days, 100=total damage to plant, 0=no damage to plant; for pest or weed control at 250 g/ha: 250 g ai/ha
Method in brief: as §2

[10] = tested on: ivy-leaved morning glory (Ipomoea hederacea); assay: Test G Post-Emergence Protocol; conditions: Ipomoea, post-emergence, 312 h, read-out: Morningglory, Ivy-leaved damage rating; for pest or weed control at 15.625 g/ha: 15.625 g ai/ha, evaluated after 13 days (100=total damage to plant; 0=no damage to plant); for pest or weed control at 62.5 g/ha: 62.5 g ai/ha; for pest or weed control at 62.5 g/ha / pest or weed control at 250 g/ha: evaluated after 13 days, 100=total damage to plant, 0=no damage to plant; for pest or weed control at 250 g/ha: 250 g ai/ha
Method in brief: as §2

[11] = tested on: redroot pigweed (Amaranthus retroflexus); assay: Test G Post-Emergence Protocol; conditions: Amaranthus retroflexus, post-emergence, 312 h, read-out: Pigweed, Redroot damage rating; for pest or weed control at 15.625 g/ha: 15.625 g ai/ha, evaluated after 13 days (100=total damage to plant; 0=no damage to plant); for pest or weed control at 62.5 g/ha: 62.5 g ai/ha; for pest or weed control at 62.5 g/ha / pest or weed control at 250 g/ha: evaluated after 13 days, 100=total damage to plant, 0=no damage to plant; for pest or weed control at 250 g/ha: 250 g ai/ha
Method in brief: as §2

[12] = tested on: velvetleaf (Abutilon theophrasti); assay: Test G Post-Emergence Protocol; conditions: Abutilon theophrasti, post-emergence, 312 h, read-out: Velvetleaf damage rating; for pest or weed control at 15.625 g/ha: 15.625 g ai/ha, evaluated after 13 days (100=total damage to plant; 0=no damage to plant); for pest or weed control at 62.5 g/ha: 62.5 g ai/ha; for pest or weed control at 62.5 g/ha / pest or weed control at 250 g/ha: evaluated after 13 days, 100=total damage to plant, 0=no damage to plant; for pest or weed control at 250 g/ha: 250 g ai/ha
Method in brief: as §2

Structure (SMILES)	pest or weed control at 15.625 g/ha [1] [%]	pest or weed control at 62.5 g/ha [1] [%]	pest or weed control at 250 g/ha [1] [%]	plant injury at 15.625 g/ha [2] [%]	plant injury at 62.5 g/ha [2] [%]	plant injury at 250 g/ha [2] [%]	pest or weed control at 15.625 g/ha [3] [%]	pest or weed control at 62.5 g/ha [3] [%]	pest or weed control at 250 g/ha [3] [%]	pest or weed control at 15.625 g/ha [4] [%]	pest or weed control at 62.5 g/ha [4] [%]	pest or weed control at 250 g/ha [4] [%]	pest or weed control at 15.625 g/ha [5] [%]	pest or weed control at 62.5 g/ha [5] [%]	pest or weed control at 250 g/ha [5] [%]	pest or weed control at 15.625 g/ha [6] [%]	pest or weed control at 62.5 g/ha [6] [%]	pest or weed control at 250 g/ha [6] [%]	pest or weed control at 15.625 g/ha [7] [%]	pest or weed control at 62.5 g/ha [7] [%]	also measured
Cc1cc([C@H]2CN(C)C(=O)[C@@H]2C(=O)Nc2ccc(F)c(F)c2F)cnn1 (racemic) [Compound 1663]	0	0	0	0	0	0	0	0	0	0	0	0	0	0	0	0	0	0	0	0	pest or weed control at 250 g/ha [7]: 0%; plant injury at 15.625 g/ha [8]: 0%; plant injury at 62.5 g/ha [8]: 0%; plant injury at 250 g/ha [8]: 0%; pest or weed control at 15.625 g/ha [9]: 0%; pest or weed control at 62.5 g/ha [9]: 0%; pest or weed control at 250 g/ha [9]: 0%; pest or weed control at 15.625 g/ha [10]: 0%; pest or weed control at 62.5 g/ha [10]: 0%; pest or weed control at 250 g/ha [10]: 0%; pest or weed control at 15.625 g/ha [11]: 0%; pest or weed control at 62.5 g/ha [11]: 0%; pest or weed control at 250 g/ha [11]: 0%; pest or weed control at 15.625 g/ha [12]: 0%; pest or weed control at 62.5 g/ha [12]: 0%; pest or weed control at 250 g/ha [12]: 0%
COc1cc(C2CN(C)C(=O)C2C(=O)Nc2cccc(F)c2F)cc(Cl)c1OC (stereo not drawn) [Compound 1704]	40	70	80	0	50	80	50	80	80	0	0	30	0	20	0	0	0	10	40	70	pest or weed control at 250 g/ha [7]: 80%; plant injury at 15.625 g/ha [8]: 0%; plant injury at 62.5 g/ha [8]: 20%; plant injury at 250 g/ha [8]: 80%; pest or weed control at 15.625 g/ha [9]: 70%; pest or weed control at 62.5 g/ha [9]: 80%; pest or weed control at 250 g/ha [9]: 80%; pest or weed control at 15.625 g/ha [10]: 30%; pest or weed control at 62.5 g/ha [10]: 20%; pest or weed control at 250 g/ha [10]: 70%; pest or weed control at 15.625 g/ha [11]: 0%; pest or weed control at 62.5 g/ha [11]: 10%; pest or weed control at 250 g/ha [11]: 10%; pest or weed control at 15.625 g/ha [12]: 0%; pest or weed control at 62.5 g/ha [12]: 0%; pest or weed control at 250 g/ha [12]: 20%
